Patent US20080287398A1, “COLD MENTHOL RECEPTOR-1 ANTAGONISTS” (priority 2007, published 2008)
Where “and” joins values, the source holds several entries; their conditions need not be identical. Equal entries are not always repeated. Where two headings read alike, the source gives them in different places.

Biological target: T1, canine TRPM8 (Canis lupus familiaris, UniProt Q1A7N1)
T1 construct: expressed in transfected cells
Test: In vitro canine TRPM8 functional assay (Ca2+-sensitive dye, FLIPR/FDSS, icilin activation)
Assay type: cell-based
Conditions: HEK293 cells expressing canine TRPM8, icilin activation; for % I (0.5 μM): 0.5 μM compound; for IC50: eight-point dose-response; for % I (1 μM): 1 μM compound
In short: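 Icilin challenge (final concentration producing ~80% of maximal response) followed a 5 min compound exposure in canine TRPM8-HEK293 cells dye-loaded with Calcium 3. Intracellular Ca2+ was read on FLIPR/FDSS. EC50 and IC50 values came from nonlinear sigmoidal dose-response fits of basal-subtracted, percent-of-maximum data averaged over quadruplicates.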

[1] = HEK293, 1 μM compound, read-out: % I (1 μM)
[2] = HEK293, read-out: % I (1 μM), 1 μM compound

T1 sequence (Q1A7N1 1-1104): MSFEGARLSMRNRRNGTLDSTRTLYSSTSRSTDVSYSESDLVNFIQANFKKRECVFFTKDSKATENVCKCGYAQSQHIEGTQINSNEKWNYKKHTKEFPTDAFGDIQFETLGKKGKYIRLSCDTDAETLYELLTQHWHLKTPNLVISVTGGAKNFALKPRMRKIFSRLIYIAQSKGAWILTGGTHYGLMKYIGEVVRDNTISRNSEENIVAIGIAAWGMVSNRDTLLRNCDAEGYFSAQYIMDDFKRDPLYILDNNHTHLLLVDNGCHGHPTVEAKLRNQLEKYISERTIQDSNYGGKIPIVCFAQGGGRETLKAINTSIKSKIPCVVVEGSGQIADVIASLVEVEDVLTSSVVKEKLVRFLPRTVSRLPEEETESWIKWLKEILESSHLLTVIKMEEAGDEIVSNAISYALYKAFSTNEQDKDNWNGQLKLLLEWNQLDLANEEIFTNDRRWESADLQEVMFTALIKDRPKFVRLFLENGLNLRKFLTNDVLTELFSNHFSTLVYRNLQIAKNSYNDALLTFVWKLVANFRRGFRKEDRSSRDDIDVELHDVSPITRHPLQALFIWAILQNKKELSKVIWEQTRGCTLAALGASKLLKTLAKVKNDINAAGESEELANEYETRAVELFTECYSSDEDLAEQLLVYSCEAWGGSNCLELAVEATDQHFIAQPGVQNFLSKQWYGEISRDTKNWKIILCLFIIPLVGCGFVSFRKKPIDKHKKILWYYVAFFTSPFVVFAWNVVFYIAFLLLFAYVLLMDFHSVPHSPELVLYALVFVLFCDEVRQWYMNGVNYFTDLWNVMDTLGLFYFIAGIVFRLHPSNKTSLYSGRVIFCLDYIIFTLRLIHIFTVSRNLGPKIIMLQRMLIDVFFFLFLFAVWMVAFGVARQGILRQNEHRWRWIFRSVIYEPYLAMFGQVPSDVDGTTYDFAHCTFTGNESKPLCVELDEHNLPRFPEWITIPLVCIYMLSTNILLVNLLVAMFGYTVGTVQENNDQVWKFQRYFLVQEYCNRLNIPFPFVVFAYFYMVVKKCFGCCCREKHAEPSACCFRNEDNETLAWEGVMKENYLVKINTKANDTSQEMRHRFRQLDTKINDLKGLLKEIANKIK

Compound | % I (0.5 μM) | IC50 (read-out: IC50) | also measured
CCOP(=O)(OCC)C(Cc1cccc(Cl)c1F)c1sc2ccccc2c1Cl (centres unmarked) [Cpd 272] | 103% | 0.114 µM | –
CC(C)OP(=O)(OC(C)C)C(Cc1cccc(Cl)c1)c1cc2ccccc2s1 (centres unmarked) [Cpd 134] | – | 0.34 µM | % I (1 μM): 101%
CCOP(=O)(OCC)C(Cc1ccc2ccccc2c1)c1sc2ccccc2c1C (centres unmarked) [Cpd 46] | – | 0.167 µM | % I (1 μM): 99%
CCC(C)P(=O)(C(C)CC)C(Cc1ccc(F)c(F)c1)c1sc2ccccc2c1Br (centres unmarked) [Cpd 203] | – | 0.457 µM | % I (1 μM): 96%
CCOP(=O)(OCC)C(Cc1cc(F)cc(C(F)(F)F)c1)c1sc2ccccc2c1Br (centres unmarked) [Cpd 140] | 102% | 0.056 µM | –
CCOP(=O)(OCC)C(Cc1ccccc1)c1cc2ccccc2s1 (centres unmarked) [Cpd 74] | – | 0.38 µM | % I (1 μM): 92%
CCOP(=O)(OCC)C(Cc1ccc(OC)c(C(F)(F)F)c1)c1sc2ccccc2c1Cl (racemic) [Cpd 292] | 99% | 0.216 µM | –
CCOP(=O)(OCC)C(Cc1cccc(OC(F)(F)F)c1)c1sc2ccccc2c1Br (racemic) [Cpd 145] | 103% and 102% | 0.119 µM and 0.116 µM | –
CC(C)OP(=O)(OC(C)C)C(Cc1cccc(Cl)c1)c1sc2ccccc2c1Cl (centres unmarked) [Cpd 180] | 103% | 0.075 µM | –
CC(C)OP(=O)(OC(C)C)C(Cc1ccc(F)c(F)c1)c1cc2ccccc2o1 (centres unmarked) [Cpd 120] | – | 0.39 µM | % I (1 μM): 102%
CCOP(=O)(OCC)C(Cc1ccc(OC(F)(F)F)c(Cl)c1)c1sc2ccccc2c1Br (racemic) [Cpd 149] | 103% | 0.06 µM | –
[2-(3,4-Difluoro-phenyl)-1-(3-methyl-benzo[b]thiophene-2-yl)-ethyl]-methyl-phosphonic acid ethyl ester [Cpd 106] | – | 1.26 µM | % I (1 μM): 32%
Cc1c(C(Cc2ccc(F)c(F)c2)P(=O)(OC2CCCCC2)OC2CCCCC2)sc2ccccc12 (centres unmarked) [Cpd 101, [2-(3,4-Difluoro-phenyl)-1-(3-methyl-benzo[b]thiophen-2-yl)-ethyl]-phosphonic acid dicyclohexyl ester] | – | 0.75 µM | inhibition at 1 µM [1]: 55%
CCOP(=O)(OCC)C(Cc1cc(C(F)(F)F)ccc1F)c1sc2ccccc2c1C (centres unmarked) [Cpd 67] | – | 0.33 µM | % I (1 μM): 100%
[2-(3,4-Difluoro-phenyl)-1-(3-methyl-benzo[b]thiophene-2-yl)-ethyl]-[3-(4-methoxy-phenyl)-propyl]-phosphonic acid ethyl ester [Cpd 135] | – | 0.41 µM | % I (1 μM): 90%
CCOP(=O)(OCC)C(Cc1ccc(C(F)(F)F)cc1)c1sc2ccccc2c1Br (racemic) [Cpd 154] | 103% | 0.027 µM | –
CCOP(=O)(OCC)C(Cc1ccc(F)c(O)c1)c1sc2ccccc2c1Br (centres unmarked) [Cpd 225, [1-(3-Bromo-benzo[b]thiophen-2-yl)-2-(4-fluoro-3-hydroxy-phenyl)-ethyl]-phosphonic acid diethyl ester] | – | – | inhibition at 0.5 µM (HEK293, read-out: % I (0.5 μM), 0.5 μM compound): 103%; IC50 (IC50 (μM)): 0.027 µM
CC(C)OP(=O)(OC(C)C)C(Cc1ccc(OC(F)(F)F)c(Cl)c1)c1sc2ccccc2c1Cl (centres unmarked) [Cpd 184] | 104% | 0.057 µM | –
CCOP(=O)(OCC)C(Cc1ccc(C(F)(F)F)cc1)c1cc2ccccc2s1 (centres unmarked) [Cpd 68] | – | 0.34 µM | % I (1 μM): 96%
CC(C)OP(=O)(OC(C)C)C(Cc1cccc(C(F)(F)F)c1Cl)c1sc2ccccc2c1Cl (centres unmarked) [Cpd 177] | 96% | 0.139 µM | –
CCOP(=O)(OCC)C(Cc1ccc(F)c(F)c1)c1sc2c(F)cccc2c1C (centres unmarked) [Cpd 8, [2-(3,4-Difluoro-phenyl)-1-(7-fluoro-3-methyl-benzo[b-]thiophene-2-yl)-ethyl]-phosphonic acid diethyl ester] | – | – | inhibition at 1 µM [2]: 100%; IC50 (IC50 (μM)): 0.037 µM
CCOP(=O)(OCC)C(Cc1ccc(F)c(F)c1)c1sc2cccc(C(F)(F)F)c2c1C (centres unmarked) [Cpd 84] | – | – | inhibition at 1 µM [2]: 97%; IC50 (IC50 (μM)): 0.46 µM
CC(C)OP(=O)(OC(C)C)C(Cc1ccccc1)c1sc2ccccc2c1Cl (centres unmarked) [Cpd 179] | 103% | 0.068 µM | –
CC(C)OP(=O)(OC(C)C)C(Cc1ccc(F)c(F)c1)c1sc2ccccc2c1C1CC1 (centres unmarked) [Cpd 20, [1-(3-Cyclopropyl-benzo[b]thiophene-2-yl)-2-(3,4-difluoro-phenyl)-ethyl]-phosphonic acid diisopropyl ester] | – | 0.07 µM | inhibition at 1 µM [1]: 100%
CC(C)OP(=O)(OC(C)C)C(Cc1cccc(C(F)(F)F)c1Cl)c1sc2ccccc2c1Br (centres unmarked) [Cpd 268] | 104% | 0.034 µM | –
COc1ccc(CC(c2sc3ccccc3c2Br)P(=O)(OC(C)C)OC(C)C)cc1F (racemic) [Cpd 159] | 103% | 0.036 µM | –

Compound | % I (0.5 μM) | IC50 (read-out: IC50) | also measured
CCOP(=O)(OCC)C(Cc1cccc(C(F)(F)F)c1Cl)c1sc2ccccc2c1C (centres unmarked) [Cpd 81] | – | 0.44 µM and 0.61 µM | % I (1 μM): 100% and 87%
CCOP(=O)(OCC)C(Cc1cc(F)cc(C(F)(F)F)c1)c1sc2ccccc2c1Cl (centres unmarked) [Cpd 278] | 103% | 0.159 µM | –
CCOP(=O)(OCC)C(Cc1cc(Cl)ccc1F)c1sc2ccccc2c1Br (racemic) [Cpd 307] | 103% | 0.026 µM | –
CC(C)OP(=O)(OC(C)C)C(Cc1cccc(C(F)(F)F)c1)c1sc2ccccc2c1Cl (racemic) [Cpd 170] | 103% | 0.073 µM | –
CCC(C)P(=O)(C(C)CC)C(Cc1ccc(F)c(F)c1)c1oc2ccccc2c1Br (centres unmarked) [Cpd 123] | – | 0.28 µM | % I (1 μM): 103%
CCOP(=O)(OCC)C(Cc1ccc(C#N)cc1)c1sc2ccccc2c1Br (centres unmarked) [Cpd 312] | 102% | 0.089 µM | –
CC(=O)OCCOP(=O)(OCCOC(C)=O)C(Cc1ccc(F)c(F)c1)c1sc2ccccc2c1Br (racemic) [Cpd 213] | 100% | 0.202 µM | –
CCOP(=O)(OCC)C(Cc1ccc(Cl)cc1)c1sc2ccccc2c1Br (centres unmarked) [Cpd 257] | 101% | 0.026 µM | –
CCOP(=O)(OCC)C(Cc1cc(O)cc(O)c1)c1sc2ccccc2c1Br (centres unmarked) [Cpd 322] | 45% | – | –
Cc1ccc2sc(C(Cc3ccc(F)c(F)c3)P(=O)(OC(C)C)OC(C)C)c(C)c2c1 (centres unmarked) [Cpd 62, 2-(3,4-Difluoro-phenyl)-[1-(3,5-dimethyl-benzo[b]thiophen-2-yl)-ethyl]-phosphonic acid diisopropyl ester] | – | 0.29 µM | inhibition at 1 µM [1]: 95%
CC(C)OP(=O)(OC(C)C)C(Cc1cccc(F)c1F)c1sc2ccccc2c1Br (centres unmarked) [Cpd 194] | – | 0.041 µM | % I (1 μM): 103%
CCOP(=O)(OCC)C(Cc1cccc(F)c1F)c1sc2ccccc2c1C (centres unmarked) [Cpd 10] | – | 0.043 µM | % I (1 μM): 100%
CC(C)OP(=O)(OC(C)C)C(Cc1ccc(F)cc1C(F)(F)F)c1sc2ccccc2c1Br (centres unmarked) [Cpd 249] | 103% | 0.054 µM | –
CCOP(=O)(OCC)C(Cc1ccc(C(F)(F)F)cc1)c1sc2ccccc2c1Cl (racemic) [Cpd 285] | 103% | 0.125 µM | –
CCOP(=O)(OCC)C(Cc1ccccc1F)c1cc2ccccc2s1 (centres unmarked) [Cpd 80] | – | 0.43 µM | % I (1 μM): 93%; % I (5 μM) (5 μM compound): 100%
CCOP(=O)(OCC)C(Cc1ccc(F)c(F)c1)c1oc2ccccc2c1C (centres unmarked) [Cpd 9, [2-(3,4-Difluoro-phenyl)-1-(3-methyl-benzofuran-2-yl)-ethyl]-phosphonic acid diethyl ester] | – | – | inhibition at 1 µM [2]: 100%; IC50 (IC50 (μM)): 0.041 µM
CC(C)OP(=O)(OC(C)C)C(Cc1cccc(Cl)c1F)c1sc2ccccc2c1Cl (centres unmarked) [Cpd 185] | 103% | 0.071 µM | –
CCOP(=O)(OCC)C(Cc1cc(F)cc(Cl)c1)c1sc2ccccc2c1Br (centres unmarked) [Cpd 259] | 103% | 0.023 µM | –
CC(C)OP(=O)(OC(C)C)C(Cc1ccc(F)c(F)c1)c1nc2ccccc2s1 (centres unmarked) [Cpd 25, [1-Benzothiazol-2-yl-2-(3,4-difluoro-phenyl)-ethyl]-phosphonic acid diisopropyl ester] | – | 0.12 µM and 0.19 µM | inhibition at 1 µM [1]: 101%
CCOP(=O)(OCC)C(Cc1ccc(C(F)(F)F)cc1F)c1sc2ccccc2c1Br (racemic) [Cpd 150] | 103% | 0.09 µM | –
CC(C)OP(=O)(OC(C)C)C(Cc1cc(C(F)(F)F)cc(Cl)c1F)c1sc2ccccc2c1Br (centres unmarked) [Cpd 195] | – | 0.061 µM | % I (1 μM): 103%
CCOP(=O)(OCC)C(Cc1ccc(SC(F)(F)F)cc1)c1sc2ccccc2c1Cl (racemic) [Cpd 283] | 103% | 0.125 µM | –
CC(C)OP(=O)(OC(C)C)/C(=C/c1ccc(F)c(F)c1)c1cc2ccccc2s1 [Cpd 333, (E)-[1-Benzo[b]thiophen-2-yl-2-(3,4-difluoro-phenyl)-vinyl]-phosphonic acid diisopropyl ester] | – | 0.176 µM | inhibition at 0.5 µM (HEK293, 0.5 μM compound, read-out: % I (0.5 μM)): 95%
CCOP(=O)(OCC)C(Cc1ccc(F)c(F)c1)c1sc2cccc(F)c2c1C (centres unmarked) [Cpd 3, [2-(3,4-Difluoro-phenyl)-1-(4-fluoro-3-methyl-benzo[b]-thiophene-2-yl)-ethyl]-phosphonic acid diethyl ester] | – | – | inhibition at 1 µM [2]: 100%; IC50 (IC50 (μM)): 0.012 µM and 0.051 µM
CCOP(=O)(OCC)C(Cc1ccc(Cl)c(C(F)(F)F)c1)c1sc2ccccc2c1Cl (racemic) [Cpd 287] | 103% | 0.124 µM | –
CCOP(=O)(OCC)C(Cc1cc(C(F)(F)F)cc(C(F)(F)F)c1)c1sc2ccccc2c1Br (centres unmarked) [Cpd 261] | 102% | 0.073 µM and 0.077 µM | –
